We go through 24 compounds from PubChem BioAssay (NCI).

Among the test systems are DMS 273 small cell lung; HOP-18 NSCLC; KM20L2 colon; T-47D breast; MDA-N; M19-MEL melanoma; DMS 114 small cell lung; XF 498 CNS.
Common to all, as to assay: inhibition of tumour cell growth, NCI panel, 48 h

Molecules are shown by their SMILES.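 Each compound was tested at five concentrations against cells in 96-well plates for 48 hours. GI50 = concentration required for 50% inhibition of growth. The concentration for full growth arrest is given as TGI.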

On to `CC(C)CCCC(C)[C@H]1CCC2C3CC=C4C[C@@H](OC(=O)CC(CC(=O)[O-])C(=O)[O-])CC[C@]4(C)C3CC[C@@]21C.N.N.[Pt+4]` (some centres undefined), for which the GI50 in the experiment on DMS 273 small cell lung, in the experiment with HOP-18 NSCLC and in the experiment on KM20L2 colon was more than 100 µM each time. In addition, the TGI in the experiment with DMS 273 small cell lung, in the experiment with HOP-18 NSCLC and in the experiment on KM20L2 colon was more than 100 µM each time.
Consider `NCCNc1nc2ccc(F)cc2c2c(=O)c3cc(F)ccc3sc12`, for which, in the experiment with T-47D breast, the GI50 was 1.72 µM and the TGI worked out at 3.72 µM.
The matching figures for `NC1=CC(=O)C(=O)c2ccccc21`: 14.2 µM and 46.2 µM.
With `Cn1c(=S)c2[nH]c(SCc3cccnc3)nc2n(C)c1=O`, the TGI in the experiment on MDA-N and in the experiment with T-47D breast was more than 100 µM throughout.
For `CCC1C[N+]2=C(c3cc(OC)c(OC)cc3CC2)c2c1cc1n2CCc2cc(OC)c(OC)cc2-1` (centres undefined), in the experiment on T-47D breast, the GI50 is 0.746 µM and the TGI is 5.51 µM.
The matching figures for `COc1ccc(/C=N/C2=NNC(C)(c3ccccc3O)N2C(Cc2c[nH]c3ccccc23)C(=O)O)cc1` (centres undefined): 1.55 µM and 12.2 µM.
Regarding `C=CC(=O)OCCCS(=O)(=O)[O-].C=CC(=O)OCCCS(=O)(=O)[O-].NC1CCCCC1N.[Pt+4]`, the GI50 in the experiment with DMS 273 small cell lung, with HOP-18 NSCLC, with KM20L2 colon and in the experiment with M19-MEL melanoma was more than 25 µM throughout. In addition, the TGI with DMS 273 small cell lung, in the experiment on HOP-18 NSCLC, in the experiment on KM20L2 colon and in the experiment on M19-MEL melanoma was more than 25 µM throughout.
As for `COc1ccc2cn3c4ccc(O)cc4[nH]c(=O)c3c2c1`, in the experiment with T-47D breast, the GI50 was 0.573 µM and the TGI worked out at 24.1 µM.
Turning to `C=C(C)C1Cc2cc(C(C)=O)ccc2O1` (centres undefined), the TGI in the experiment with MDA-N and in the experiment with T-47D breast was more than 100 µM each time.
For `Nc1n[nH]c2cc(F)c([C@@H]3Nc4c(F)cc5[nH]ncc5c4[C@H]4C5CCC(C5)[C@@H]34)cc12` (some centres undefined), in the experiment on T-47D breast, the GI50 was 5.89 µM and the TGI was determined as 26.6 µM.
In the same order, the values of `COc1ccc(OC)c(-c2nc3sc(C)cn3c2/C=C2\C(=O)N(C)c3ccccc32)c1` are 30.8 µM and 73.7 µM.
The matching figures for `COc1ccc(C(=O)c2cc(C)c(OC)c(C)c2)c(OC)c1OC(=O)C(Cl)Cl`: 6.37 µM and more than 100 µM.
In the same order, the values of `CN1CCC(n2cnc(-c3ccc(F)cc3)c2-c2ccnc(Nc3ccccc3)n2)CC1` are 6.85 µM and more than 25 µM.
As to `O=C(CC(=O)c1cccc2ccccc12)C(=O)Nc1nccs1`, the TGI in the experiment on DMS 273 small cell lung, with HOP-18 NSCLC, with KM20L2 colon and with M19-MEL melanoma was more than 100 µM in each case.
On to `N#CC1=C(N)Oc2c(ccc3cccnc23)C1c1ccccc1` (centres undefined), for which the TGI is 7.98 µM in the experiment on DMS 114 small cell lung; more than 100 µM in the experiment with DMS 273 small cell lung; more than 100 µM in the experiment on HOP-18 NSCLC; more than 100 µM in the experiment with M19-MEL melanoma; 65.6 µM with T-47D breast; 77.7 µM with XF 498 CNS. Besides, in the experiment with T-47D breast, the GI50 is 1.45 µM.
As for `CC(C)(C)CC(C)(C)c1cc2c(O)c(c1)Cc1cc(C(C)(C)CC(C)(C)C)cc(c1O)Cc1cc(C(C)(C)CC(C)(C)C)cc(c1O)Cc1cc(C(C)(C)CC(C)(C)C)cc(c1O)Cc1cc(C(C)(C)CC(C)(C)C)cc(c1O)Cc1cc(C(C)(C)CC(C)(C)C)cc(c1O)Cc1cc(C(C)(C)CC(C)(C)C)cc(c1O)Cc1cc(C(C)(C)CC(C)(C)C)cc(c1O)C2`, the TGI with DMS 273 small cell lung, in the experiment on KM20L2 colon, with M19-MEL melanoma and with XF 498 CNS was more than 100 µM each time.
With `Cc1ccc(Nn2c(SCC(=O)Nc3nc(-c4ccccc4)cs3)nc(C)c2C)cc1`, in the experiment with T-47D breast, the GI50 is 1.85 µM and the TGI came to 10.4 µM.
Take `O=c1c2cc(Br)ccc2n(C2OC(CO)C(O)C(O)C2O)c(=S)n1-c1ccccc1` (centres undefined): the TGI in the experiment on DMS 114 small cell lung, in the experiment on HOP-18 NSCLC, in the experiment with KM20L2 colon, in the experiment with M19-MEL melanoma and with XF 498 CNS was more than 100 µM each time.
As for `CC/C(=N/O)C(C)C(=O)CCC(=O)Nc1ccc(Cl)cc1` (centres undefined), the TGI with DMS 114 small cell lung, in the experiment with DMS 273 small cell lung, in the experiment on HOP-18 NSCLC, in the experiment with KM20L2 colon, in the experiment with M19-MEL melanoma and with XF 498 CNS was more than 100 µM each time.
In the case of `O=C(c1nc2ccc(Cl)cc2[nH]c1=O)C(O)c1cccc([N+](=O)[O-])c1` (centres undefined), the TGI with DMS 114 small cell lung is 17.6 µM; with DMS 273 small cell lung it was more than 100 µM; in the experiment on HOP-18 NSCLC, more than 100 µM; with KM20L2 colon, more than 100 µM; with M19-MEL melanoma it was more than 100 µM; with XF 498 CNS it was more than 100 µM.
On to `CC1=CC[C@@H]2C(=O)C=CC=C[C@H]12.[C-]#[O+].[C-]#[O+].[C-]#[O+].[Fe]`, for which the GI50 with DMS 114 small cell lung, in the experiment on HOP-18 NSCLC, in the experiment with KM20L2 colon and with M19-MEL melanoma was more than 100 µM in each case. In addition, the TGI in the experiment with DMS 114 small cell lung, in the experiment with HOP-18 NSCLC, in the experiment on KM20L2 colon and with M19-MEL melanoma was more than 100 µM throughout.
As for `O=C1c2ccccc2-c2c1c1ccc([N+](=O)[O-])cc1c(=O)n2CCN1CCOCC1`, in the experiment on T-47D breast, the GI50 is 78.4 µM and the TGI was more than 100 µM.
In the same order, the values of `O=C(/C=C/c1cc(O)ccc1O)c1ccc(Cl)cc1` are 36.5 µM and more than 100 µM.
The matching figures for `COc1cc2c3c(n(CCCN=[N+]=[N-])c(=O)c2cc1OC)-c1ccc(NC(C)=O)cc1C3=O`: more than 50 µM and more than 50 µM.
